Measured values as given in patent US4919932A, “Pharmaceutical formulation for the treatment of bacterial infections” (priority 1986, dated 1990).
Converted amounts (≈) assume the structure as drawn. Read-outs that look alike come from different tables or passages of the source.

Assays:
Strept. D 21777 = experiment: MIC against Strept. D 21777; assay type: cell-based
Kl. aerog. 1082E = experiment: MIC against Kl. aerog. 1082E; assay type: cell-based
B. fragilis 18125 = experiment: MIC against B. fragilis 18125; assay type: cell-based; settings: Bacteroides fragilis, anaerobic
Citrob. 82 Cull. = experiment: MIC against Citrob. 82 Cull.; assay type: cell-based
Citrob. 2901 = experiment: MIC against Citrob. 2901
E. coli 2139E = experiment: MIC against E. coli 2139E; assay type: cell-based; settings: Escherichia coli
Staph. 285 = experiment: MIC against Staph. 285; assay type: cell-based
Strept. D 26777 = experiment: MIC against Strept. D 26777; assay type: cell-based
Ent. cl. P99 = experiment: MIC against Ent. cl. P99; assay type: cell-based; settings: clinical isolate resistant to the cephalosporin
Staph. SG 511 = experiment: MIC against Staph. SG 511; assay type: cell-based
Cl. tetani 19406 = experiment: microbe, parasite or virus in culture; assay type: cell-based; settings: Clostridium tetani
Kl. pneu. 1976E = experiment: MIC against Kl. pneu. 1976E; assay type: cell-based
Staph. 503 = experiment: MIC against Staph. 503; assay type: cell-based
B. thetaiotaomicron 123 = experiment: MIC against B. thetaiotaomicron 123; assay type: cell-based; settings: Bacteroides thetaiotaomicron, anaerobic
B. vulgatus 1446 = experiment: MIC against B. vulgatus 1446; assay type: cell-based; settings: Phocaeicola vulgatus, anaerobic
Sph. varius 5262 = experiment: MIC against Sph. varius 5262; assay type: cell-based; settings: Fusobacterium varium, anaerobic
Ent. cl. 2240 Cull. = experiment: MIC against Ent. cl. 2240 Cull.; assay type: cell-based
B. fragilis 17390 = experiment: MIC against B. fragilis 17390; assay type: cell-based; settings: Bacteroides fragilis, anaerobic
Staph. 22130 = experiment: MIC against Staph. 22130; assay type: cell-based; settings: clinical isolate resistant to the cephalosporin
Ent. cl. M 423 = experiment: MIC against Ent. cl. M 423; assay type: cell-based; settings: clinical isolate resistant to the cephalosporin
Staph. 789 = experiment: MIC against Staph. 789; assay type: cell-based; settings: clinical isolate resistant to the cephalosporin
B. fragilis 960 = experiment: MIC against B. fragilis 960; assay type: cell-based; settings: Bacteroides fragilis, anaerobic
B. ovatus 103 = experiment: MIC against B. ovatus 103; assay type: cell-based; settings: Bacteroides ovatus, anaerobic
Strept. faecium D = experiment: MIC against Strept. faecium D; assay type: cell-based; settings: Enterococcus faecium, clinical isolate resistant to the cephalosporin
B. distasonis 1366 = experiment: MIC against B. distasonis 1366; assay type: cell-based; settings: Parabacteroides distasonis
Ent. cl. M. 447 = experiment: MIC against Ent. cl. M. 447
B. fragilis 312 = experiment: MIC against B. fragilis 312; assay type: cell-based; settings: Bacteroides fragilis, anaerobic

SMILES: CC(O)C1C(=O)N2C(C(=O)O)=C(Oc3ccc(C(N)=O)cc3)SC12 (stereo not drawn) [(1), sodium 5R,6S-6-(1R-hydroxyethyl)-3-(4-carbamoyl-phenoxy)-7-oxo-4-thia-1-azabicyclo[3.2.0]hept-2-ene-2-carboxylate]
- MIC (Strept. D 21777): 8 µg/mL
- MIC (Kl. aerog. 1082E): 0.5 µg/mL
- MIC (B. fragilis 18125): 0.25 µg/mL
- MIC (Citrob. 82 Cull.): 1 µg/mL
- MIC (Citrob. 2901): 8 µg/mL
- MIC (E. coli 2139E): 1 µg/mL
- MIC (Staph. 285): 0.062 µg/mL
- MIC (Strept. D 26777): 8 µg/mL
- MIC (Ent. cl. P99): 2 µg/mL
- MIC (Staph. SG 511): 0.062 µg/mL
- MIC (Cl. tetani 19406): 0.25 µg/mL
- MIC (Kl. pneu. 1976E): 1 µg/mL
- MIC (Staph. 503): 0.062 µg/mL
- MIC (B. thetaiotaomicron 123): 0.125 µg/mL
- MIC (B. vulgatus 1446): 0.125 µg/mL
- MIC (Sph. varius 5262): 0.25 µg/mL
- MIC (Ent. cl. 2240 Cull.): 2 µg/mL
- MIC (B. fragilis 17390): 0.25 µg/mL
- MIC (Staph. 22130): 2 µg/mL
- MIC (Ent. cl. M 423): 4 µg/mL
- MIC (Staph. 789): 4 µg/mL
- MIC (B. fragilis 960): 0.125 µg/mL
- MIC (B. ovatus 103): 0.125 µg/mL
- MIC (Strept. faecium D): 8 µg/mL
- MIC (B. distasonis 1366; B. distasonis 1366, read-out: MIC): 0.25 µg/mL
- MIC (Ent. cl. M. 447): 16 µg/mL
- MIC (B. fragilis 312): 0.125 µg/mL

SMILES: CO/N=C(\C(=O)N[C@@H]1C(=O)N2C(C(=O)O)=C(COC(C)=O)CS[C@H]12)c1csc(N)n1 [(2)]
- MIC (Strept. D 21777): 64 µg/mL (≈ 141 µM)
- MIC (Kl. aerog. 1082E): 1 µg/mL (≈ 2.2 µM)
- MIC (B. fragilis 18125): 2 µg/mL (≈ 4.39 µM)
- MIC (Citrob. 82 Cull.): 2 µg/mL (≈ 4.39 µM)
- MIC (Citrob. 2901): 64 µg/mL (≈ 141 µM)
- MIC (E. coli 2139E): 0.031 µg/mL (≈ 0.0681 µM)
- MIC (Staph. 285): 2 µg/mL (≈ 4.39 µM)
- MIC (Strept. D 26777): 64 µg/mL (≈ 141 µM)
- MIC (Ent. cl. P99): 64 µg/mL (≈ 141 µM)
- MIC (Staph. SG 511): 2 µg/mL (≈ 4.39 µM)
- MIC (Cl. tetani 19406): 8 µg/mL (≈ 17.6 µM)
- MIC (Kl. pneu. 1976E): 0.062 µg/mL (≈ 0.136 µM)
- MIC (Staph. 503): 2 µg/mL (≈ 4.39 µM)
- MIC (B. thetaiotaomicron 123): 64 µg/mL (≈ 141 µM)
- MIC (B. vulgatus 1446): 64 µg/mL (≈ 141 µM)
- MIC (Sph. varius 5262): 64 µg/mL (≈ 141 µM)
- MIC (Ent. cl. 2240 Cull.): 0.062 µg/mL (≈ 0.136 µM)
- MIC (B. fragilis 17390): 8 µg/mL (≈ 17.6 µM)
- MIC (Staph. 22130): 32 µg/mL (≈ 70.3 µM)
- MIC (Ent. cl. M 423): 64 µg/mL (≈ 141 µM)
- MIC (Staph. 789): 64 µg/mL (≈ 141 µM)
- MIC (B. fragilis 960): 16 µg/mL (≈ 35.1 µM)
- MIC (B. ovatus 103): 64 µg/mL (≈ 141 µM)
- MIC (Strept. faecium D): 64 µg/mL (≈ 141 µM)
- MIC (B. distasonis 1366; 1366): 0.125 µg/mL (≈ 0.274 µM)
- MIC (Ent. cl. M. 447): 64 µg/mL (≈ 141 µM)
- MIC (B. fragilis 312): 128 µg/mL (≈ 281 µM)
